Test results: paper PMC2765658 (Chemical communications (Cambridge, England), 2009)
Square brackets hold non-standard residues; d marks the D form. Peptide text beside a SMILES is read from it. Aib = CC(C)(N)C(=O)O

Test: Thermal melting followed by CD ellipticity
Format: physicochemical
Conditions: CD ellipticity followed over 20 - 85 °C; 100 μM peptide in 20% TFE/H2O

CC(=O)NCCCC[C@H](NC(=O)[C@@H](NC(C)=O)C(C)C)C(=O)N[C@@H](CC(C)C)C(=O)NC(C)(C)C(=O)N[C@H](C(=O)N[C@@H](CCCCNC(C)=O)C(=O)N[C@@H](CC(C)C)C(N)=O)C(C)C [compound 17, Ac-Val-Lys(Ac)-Leu-Aib-Val-Lys(Ac)-Leu-NH2] (Ac-VK(Ac)L[Aib]VK(Ac)L-NH2)
thermal melting point (Tm): 48 °C
